Measured values published in patent US7838548B2, “Compounds and methods for treating toll-like receptor 2-related diseases and conditions” (Eisai R&D Management Co., Ltd., priority 2003, dated 2010).

Key:
Type in all cases: cell-based
[1] = molecular target: T1, human TLR2 (Homo sapiens, UniProt O60603); assay: TLR2 antagonism assay, HEK-TLR2-ELAM luciferase reporter cells stimulated with Pam3CSK4
T1 construct: expressed in transfected cells
Description: (§1) Either Pam3CSK4 and R-MALP-2 lipopeptides (EMC-Microcollections), or lipopolysaccharide (LPS, List Biologicals) are dissolved in water to a concentration of 1 mg/mL, sonicated 5 times for 30 seconds, and stored in aliquots at −20° C. Prior to addition to cells, an aliquot of the dissolved ligand is sonicated for 1 minute and then is diluted in medium to 2 ng/mL Pam3CSK4, 16 ng/mL R-MALP-2, or 100 ng/mL LPS. The final concentration in the assay is 0.2 ng/mL Pam3CSK4, 1.6 ng/mL R-MALP-2, or 10 ng/mL LPS.
(§2) The test compounds are stored as 30 mM stocks in […]. The final concentrations of the test compounds in the assay are 0.1, 0.3, 1, 3, 10, and 30 μM in 0.2% DMSO. 0.2% DMSO is used in the assay as a control.
(§3) HEK-TLR2-ELAM cells were generated by a two-step method. In step 1, Hek293 cells were transfected with pcDNA3.0 encoding human TLR2 followed by antibiotic selection with G418 in D-MEM supplemented with 10% fetal bovine serum (Gibco BRL) to generate Hek-TLR2 cells. In step 2, Hek-TLR2 cells were transfected with pELAM-luc/Zeo followed by antibiotic selection with Zeocin in D-MEM supplemented with 10% fetal bovine serum. Transfectants were screened for TLR2 responsiveness by measuring ligand-induced pELAM-luciferase reporter activity, and analyzed for TLR2 mRNA expression by RT-PCR.
Step 1. On day 1, HEK-TLR2-ELAM cells are plated at 2×10^5 cells/mL, 80 μL/well, in 96-well black plates. The cells are incubated at 37° C., 5% CO2, for 24 hours. The growth medium used is D-MEM, 10% fetal bovine serum, 2 mM L-glutamine, 10 μg/mL Ciprofloxacin, 300 μg/mL Geneticin (G418), and 150 μg/mL Zeocin.
Step 2. On day 2, 10 μL of each test compound is added to the wells, and 10 μL lipopeptide is added to all of the wells. The plates are then incubated at 37° C., 5% CO2, for 18 hours.
(§4) Step 3. On day 3, 25 μL of Steady-Glo reagent (Promega, Inc.) is added to each well. The plates are then shaken for 5 minutes, and the chemiluminescence of each well is read in a Wallac1450 MicroBetaTriLux counter. Dose-response curves were plotted in KaleidaGraph, version 3.5 Synergy Software, and IC50 values were calculated.

[2] = molecular target: T1, human TLR2; assay: TLR2 antagonism assay, HEK-TLR2-ELAM luciferase reporter cells stimulated with R-MALP-2; settings: Table 7, diacylated lipopeptide R-MALP-2 (TLR2 interacts with TLR6), 1.6 ng/mL
Description: as §1, §2
as §3, with “In step 2, Hek-TLR2 cells were transfected with pELAM-luc/Zeo followed by antibiotic selection with Zeocin in D-MEM supplemented with 10% fetal bovine serum.” left out, “RT-PCR. […]” for “RT-PCR.”
Step 3. […] The plates are then shaken for 5 minutes, and the chemiluminescence of each well is read in a Wallac1450 MicroBetaTriLux counter. Dose-response curves were plotted in KaleidaGraph, version 3.5 Synergy Software, and IC50 values were calculated. […]

[3] = molecular target: T2, TLR4 (Homo sapiens, UniProt O00206); assay: TLR4 antagonism assay, HEK-TLR4-MD2-ELAM luciferase reporter cells stimulated with LPS plus soluble CD14; settings: Table 6, 10 ng/mL LPS plus 10 nM soluble CD14, 18 hours
T2 construct: expressed in transfected cells
Description: as §1, §2
HEK293 cells stably carrying plasmids for TLR4, MD2, and the NF-κB reporter gene ELAM-1-luciferase (HEK-TLR4-MD2-ELAM) were generated as described by Yang et al., J. Biol. Chem. 275:20861-20866, 2000.
Step 1. On day 1, HEK-TLR4-MD2-ELAM cells were plated at 4×10^5 cells/mL, 80 μL/well, in 96-well black plates. The growth medium used is D-MEM, 10% fetal bovine serum, 2 mM L-glutamine, 10 μg/mL Ciprofloxacin, 300 μg/mL Geneticin (G418), 150 μg/mL Zeocin, and 50 μg/mL Hygromycin.
Step 2. On day 2, 10 μL of each test compound is added to the wells, and 10 μL of LPS plus 10 nM soluble CD14 (Biometec) is added to all of the wells. The plates are then incubated at 37° C., 5% CO2, for 18 hours.
as §4

[4] = Table 7, triacylated lipopeptide Pam3CSK4 (TLR2 associates with TLR1), 0.2 ng/mL
[5] = Table 6, 0.2 ng/mL Pam3CSK4, 18 hours, ELAM-luciferase reporter

T1 sequence (O60603 21-784): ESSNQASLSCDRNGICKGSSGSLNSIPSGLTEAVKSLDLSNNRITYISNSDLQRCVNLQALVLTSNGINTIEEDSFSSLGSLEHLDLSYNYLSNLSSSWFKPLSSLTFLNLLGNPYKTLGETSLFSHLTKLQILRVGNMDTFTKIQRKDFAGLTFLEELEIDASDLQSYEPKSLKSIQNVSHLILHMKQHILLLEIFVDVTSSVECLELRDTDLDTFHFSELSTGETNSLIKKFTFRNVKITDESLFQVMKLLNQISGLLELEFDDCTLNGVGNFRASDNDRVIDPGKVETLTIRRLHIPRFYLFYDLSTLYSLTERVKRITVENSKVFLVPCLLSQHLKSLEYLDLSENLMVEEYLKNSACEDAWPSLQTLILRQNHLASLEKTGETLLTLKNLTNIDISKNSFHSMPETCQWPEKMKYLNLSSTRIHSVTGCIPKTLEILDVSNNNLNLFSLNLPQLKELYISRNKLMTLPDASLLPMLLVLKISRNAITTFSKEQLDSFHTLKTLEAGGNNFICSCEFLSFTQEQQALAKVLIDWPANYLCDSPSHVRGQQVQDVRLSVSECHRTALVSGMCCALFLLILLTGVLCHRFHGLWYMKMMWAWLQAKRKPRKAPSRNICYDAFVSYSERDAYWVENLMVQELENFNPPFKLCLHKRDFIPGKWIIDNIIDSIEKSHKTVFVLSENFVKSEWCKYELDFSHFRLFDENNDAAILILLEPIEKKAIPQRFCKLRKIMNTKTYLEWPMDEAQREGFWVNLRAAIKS
T2 sequence (O00206 24-839): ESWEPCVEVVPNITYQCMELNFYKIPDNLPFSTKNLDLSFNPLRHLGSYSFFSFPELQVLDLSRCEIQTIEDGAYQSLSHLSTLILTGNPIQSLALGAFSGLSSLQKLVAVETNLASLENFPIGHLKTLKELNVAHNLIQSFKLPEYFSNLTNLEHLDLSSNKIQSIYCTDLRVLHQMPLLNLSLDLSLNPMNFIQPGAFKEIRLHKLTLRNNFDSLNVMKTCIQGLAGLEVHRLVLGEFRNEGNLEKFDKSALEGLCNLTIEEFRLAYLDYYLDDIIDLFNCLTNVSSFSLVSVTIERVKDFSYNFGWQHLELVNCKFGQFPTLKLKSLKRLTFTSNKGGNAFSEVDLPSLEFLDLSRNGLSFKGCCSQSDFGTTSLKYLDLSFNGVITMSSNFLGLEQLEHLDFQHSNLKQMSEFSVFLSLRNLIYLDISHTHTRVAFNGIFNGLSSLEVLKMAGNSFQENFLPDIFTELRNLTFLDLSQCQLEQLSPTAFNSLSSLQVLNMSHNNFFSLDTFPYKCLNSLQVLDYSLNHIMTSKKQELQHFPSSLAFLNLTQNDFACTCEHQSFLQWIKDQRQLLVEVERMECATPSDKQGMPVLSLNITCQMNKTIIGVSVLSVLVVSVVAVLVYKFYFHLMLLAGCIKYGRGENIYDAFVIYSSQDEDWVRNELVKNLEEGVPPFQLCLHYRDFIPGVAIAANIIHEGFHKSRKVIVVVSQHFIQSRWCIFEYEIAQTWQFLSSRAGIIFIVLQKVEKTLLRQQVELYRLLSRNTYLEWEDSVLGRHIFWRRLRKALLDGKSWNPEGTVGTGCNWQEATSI
T2 sequence (Q9Y6Y9 17-160 partner limits assumed): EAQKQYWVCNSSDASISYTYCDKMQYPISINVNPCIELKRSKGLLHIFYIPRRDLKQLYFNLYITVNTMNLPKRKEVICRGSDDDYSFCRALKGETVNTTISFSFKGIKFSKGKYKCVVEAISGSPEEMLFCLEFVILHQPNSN

Structure (SMILES)	IC50 [1, 4] [nM]	IC50 [2] [nM]	IC50 [1, 5] [nM]	IC50 [3] [nM]
CCCCCCCCCCCCCC(=O)N[C@H](COCC[C@@H](CCCCCCC)OC(=O)CCCCCCCCCCC)COP(=O)(O)OCCNC(=O)[C@@H](NC(=O)Cc1c[nH]c2ccccc12)[C@@H](C)CC [ER808977]	240	20000		
CCCCCCCCCCCCCCCC(=O)OCCCNC(=O)C(COP(=O)(O)OCCNC(=O)[C@@H](NC(=O)Cc1c[nH]c2ccccc12)[C@@H](C)CC)NC(=O)CCCCCCCCCCC (stereo partly drawn) [ER811212]			390	1000
CCCCCCCCCCCCCCCCCCCC(=O)N[C@@H](COP(=O)(O)OCCNC(=O)[C@@H](NC(=O)Cc1c[nH]c2ccccc12)[C@@H](C)CC)C(=O)NCCC(O)CCCCCCCCCC (mixture of isomers) [ER811395]			650	1800
CCCCCCCCCCCCCCCCCCCC(=O)N[C@@H](COP(=O)(O)OCCNC(=O)[C@@H](NC(=O)Cc1c[nH]c2ccccc12)[C@@H](C)CC)C(=O)NCCC(O)CCCCCCCCCCCCC (mixture of isomers) [ER811393]				12300
CCCCCCCCCCCCCCCC(=O)N[C@@H](COP(=O)(O)OCCNC(=O)[C@@H](NC(=O)Cc1c[nH]c2ccccc12)[C@@H](C)CC)C(=O)NCCCOC(=O)CCCCCCCCCCC [ER811211]			440	700
CCCCCCCCCCCCCCCC(=O)N[C@@H](COP(=O)(O)OCCNC(=O)[C@@H](NC(=O)Cc1c[nH]c2ccc(Br)cc12)[C@@H](C)CC)C(=O)NCCCOC(=O)CCCCCCCCCCC [ER811232]			750	400

Now from value to compound:

IC50 [1, 4] [nM]	IC50 [2] [nM]	IC50 [1, 5] [nM]	IC50 [3] [nM]	Structure (SMILES)
		500	1800	CCCCCCCCCCCCCCCC(=O)OC[C@H](CNC(=O)[C@@H](COP(=O)(O)OCCNC(=O)[C@@H](NC(=O)Cc1c[nH]c2ccc(OCc3ccccc3)cc12)[C@@H](C)CC)NC(C)=O)OC(=O)CCCCCCCCCCCCCCC [ER811261]
			200	CCCCCCCCCCCCCCCC(=O)N[C@@H](COP(=O)(O)OCCNC(=O)[C@@H](NC(=O)Cc1c[nH]c2ccc(-c3ccccc3)cc12)[C@@H](C)CC)C(=O)NCCCOC(=O)CCCCCCCCCCC [ER811243]
			6600	CCCCCCCCCCCCCCCCCCCC(=O)N[C@@H](COP(=O)(O)OCCNC(=O)[C@@H](NC(=O)Cc1c[nH]c2ccc(OCc3ccccc3)cc12)[C@@H](C)CC)C(=O)NCCC(O)CCCCCCCCCCCCC (mixture of isomers) [ER812011]
440	30000	430	3400	CCCCCCCCCCCCCCCC(=O)OC[C@H](CNC(=O)[C@H](COP(=O)(O)OCCNC(=O)[C@@H](NC(=O)Cc1c[nH]c2ccc(OCc3ccccc3)cc12)[C@@H](C)CC)NC(C)=O)OC(=O)CCCCCCCCCCCCCCC [ER811245]
		770	3600	CCCCCCCCCCCCCCCCCCCC(=O)N[C@@H](COP(=O)(O)OCCNC(=O)[C@@H](NC(=O)Cc1c[nH]c2ccc(OCc3ccccc3)cc12)C(C)C)C(=O)NCCC(O)CCCCCCCCCCCCC (mixture of isomers) [ER811254]
